The values below come from publication PMC12309256 (Current Research in Microbial Sciences, 2025).

The experiment concerns AsDddY. Kind of experiment: HPLC of acrylate, initial rates, nonlinear Michaelis-Menten fit. The format is biochemical, Acinetobacter sp. ZS25. As to conditions: pH 8.0, 50 °C; 0.5 nM enzyme; DMSP 1-20 mM.

As to `C[S+](C)CCC(=O)[O-]` [DMSP, dimethylsulfoniopropionate], the Km was 2600 µM.
